Results on 4 compounds are retold here after patent publication US20050203127A1, “2-(Phenyl)-2h-pyrazole-3-carboxylic acid-n-4-(thioxo-heterocyclyl)-phenyl-amide derivatives and corresponding imino-heterocyclyl derivatives and relates compounds for use as inhibitors of the coagulation factors xa and/or viia for treating thromboses” (priority 2002, published 2005).

Assay [1] deals with factor Xa (Homo sapiens, UniProt P00742). Kind of assay: Factor Xa inhibition (FXa-IC50). It is filed as biochemical. The text has this:
The inhibition of factor Xa by the compounds according to the invention and the measurement of the anticoagulant and antithrombotic activity can be determined by conventional in-vitro or in-vivo methods. A suitable method is described, for example, by J. Hauptmann et al. in Thrombosis and Haemostasis 1990, 63, 220-223.
The inhibition of factor Xa can be measured, for example by the method of T. Hara et al. in Thromb. Haemostas. 1994, 71, 314-319.

The target in assay [2] is TF/FVIIa (Homo sapiens, UniProt P08709). Kind of assay: TF/factor VIIa inhibition (TF/FVIIa-IC50). It is filed as biochemical. The text has this:
The inhibition of factor VIIa by the compounds according to the invention and the measurement of the anticoagulant and antithrombotic activity can be determined by conventional in-vitro or in-vivo methods. A conventional method for the measurement of the inhibition of factor VIIa is described, for example, by H. F. Ronning et al. in Thrombosis Research 1996, 84, 73-81.

factor Xa, sequence (P00742 235-488 limits assumed): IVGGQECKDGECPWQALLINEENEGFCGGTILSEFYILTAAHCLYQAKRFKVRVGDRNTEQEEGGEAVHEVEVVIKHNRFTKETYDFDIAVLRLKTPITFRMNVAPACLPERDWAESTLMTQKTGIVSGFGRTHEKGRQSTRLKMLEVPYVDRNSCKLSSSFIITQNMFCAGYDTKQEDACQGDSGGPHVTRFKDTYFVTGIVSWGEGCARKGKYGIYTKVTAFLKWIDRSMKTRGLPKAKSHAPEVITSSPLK
factor Xa, sequence (P00742 41-179 limits assumed): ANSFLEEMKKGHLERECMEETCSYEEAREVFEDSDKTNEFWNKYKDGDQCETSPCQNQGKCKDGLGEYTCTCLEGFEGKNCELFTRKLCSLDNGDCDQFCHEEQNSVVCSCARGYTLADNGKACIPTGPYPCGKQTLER
TF/FVIIa, sequence (P08709 213-466 limits assumed): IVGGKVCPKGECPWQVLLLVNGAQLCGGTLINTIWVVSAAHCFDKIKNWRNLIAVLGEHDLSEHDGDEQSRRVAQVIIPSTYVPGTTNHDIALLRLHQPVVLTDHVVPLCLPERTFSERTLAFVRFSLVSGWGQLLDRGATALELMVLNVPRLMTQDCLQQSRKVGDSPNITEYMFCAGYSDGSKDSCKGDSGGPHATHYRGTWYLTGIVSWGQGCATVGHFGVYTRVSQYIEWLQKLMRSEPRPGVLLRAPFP
TF/FVIIa, sequence (P08709 61-212 limits assumed): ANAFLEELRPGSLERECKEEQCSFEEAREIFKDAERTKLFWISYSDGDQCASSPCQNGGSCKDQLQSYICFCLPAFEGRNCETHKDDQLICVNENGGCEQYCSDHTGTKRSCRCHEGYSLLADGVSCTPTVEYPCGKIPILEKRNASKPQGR
TF/FVIIa, sequence (P13726 33-295 partner): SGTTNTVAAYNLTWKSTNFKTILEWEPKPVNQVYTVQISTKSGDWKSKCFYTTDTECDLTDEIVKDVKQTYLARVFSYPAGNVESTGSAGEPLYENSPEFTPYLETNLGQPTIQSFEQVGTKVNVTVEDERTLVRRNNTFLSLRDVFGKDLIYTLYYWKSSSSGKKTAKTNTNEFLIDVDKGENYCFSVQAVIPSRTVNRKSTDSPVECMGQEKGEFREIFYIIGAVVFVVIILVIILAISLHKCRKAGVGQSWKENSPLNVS

With `NC(=O)c1cccc(-n2nc(C(F)(F)F)cc2C(=O)Nc2ccc(N3CCCC3=S)c(Cl)c2)c1` [BB, N-[3-chloro-4-(2-thioxopyrrolidin-1-yl)phenyl]-2-(3-aminocarbonylphenyl)-5-trifluoromethyl-2H-pyrazole-3-carboxamide], the IC50 in assay [1] was determined as 0.33 µM; in assay [2], 0.18 µM.

In the case of `N=C1CCCN1c1ccc(NC(=O)c2cc(C(F)(F)F)nn2-c2cccc(CN)c2)cc1` [AA, N-[4-(2-iminopyrrolidin-1-yl)phenyl]-2-(3-aminomethylphenyl)-5-trifluoromethyl-2H-pyrazole-3-carboxamide], the results for the IC50 in assay [1] and in assay [2] were 0.0096 µM and 0.023 µM, respectively.

Consider `CCc1nn(-c2ccc(NC(=O)c3cc(C(F)(F)F)nn3-c3cccc(C(N)=O)c3)cc2)c(=N)s1` [CB, N-[4-(2-imino-5-ethyl-3H-1,3,4-thiadiazol-3-yl)phenyl]-2-(3-aminocarbonylphenyl)-5-trifluoromethyl-2H-pyrazole-3-carboxamide], for which the IC50 in assay [1] stood at 0.092 µM; in assay [2] it was 0.15 µM.

Turning to `N#CN=C1NCCN1c1ccc(NC(=O)c2cc(C(F)(F)F)nn2-c2cccc(C(N)=O)c2)cc1` [CA, N-[4-(2-cyanoiminoimidazolidin-1-yl)phenyl]-2-(3-aminocarbonylphenyl)-5-trifluoromethyl-2H-pyrazole-3-carboxamide], the IC50 in assay [1] stood at 0.2 µM; in assay [2], 0.069 µM.
